Experimental data as given in ChEMBL document CHEMBL1142285, “Indeno[1,2-c]isoquinolines as enhancing agents on all-trans retinoic acid-mediated differentiation of human myeloid leukemia cells” (2008).

Tests used:
Assay type in all cases: functional, cell-based
HL-60 [1] = experiment: Induction of differentiation in human HL60 cells after 72 hrs by NBT assay
NB-4 [2] = experiment: Induction of differentiation in human NB4 cells after 72 hrs by NBT assay
HL-60 [3] = experiment: Antiproliferative activity against human HL60 cells after 72 hrs by MTT assay
NB-4 [4] = experiment: Antiproliferative activity against human NB4 cells after 72 hrs by MTT assay

Measured: Activity

COc1ccc(Cn2c3c(c4cc(C)ccc4c2=O)C(C)c2ccccc2-3)cc1 (centres undefined)
active: HL-60 [1] Dose-dependent effect | NB-4 [2] Dose-dependent effect | HL-60 [3] Dose-dependent effect | NB-4 [4] Dose-dependent effect
